Laboratory results published in article PMC12406255, “Engineering Peptide Modulators for T‑Cell Migration by Structural Scaffold Matching” (Journal of Medicinal Chemistry, 2025).
Where two headings read alike, the source gives them in different places. Positions of bridges follow the written chain, without caps; N, C: chain ends. Non-standard residues stand in square brackets, D forms with d. Residues, ends and D or L forms follow the SMILES beside them. Nle = CCCC[C@H](N)C(=O)O

Columns and labels:
Serum stability assay = assay type: in vitro ADME; conditions: human serum of healthy donors, lipids removed by centrifugation, 37 °C, peptide 30-60 μM from 10-fold stock in PBS, followed over 48 h, urea/TFA quench, analytical RP-HPLC peak area vs time 0, one-phase decay fit; mean ± SD, n = 2 (pepitem n = 5); read-out: Serum t 1/2 (converted)
Procedure: Stability of peptides in human serum was measured similarly to that previously described. In short, fresh blood from healthy donors was collected in serum collection tubes (Clot Activator Tube, Becton Dickinson, Plymouth, United Kingdom, […]) and incubated at 4 °C for 2 h to allow blood clotting. The serum was separated by centrifugation at 1000 × g for 10 min. To remove lipids from the serum, an additional centrifugation step was performed at 15,000 × g for 15 min at 4 °C, after which the serum was used for the stability assays. For this, the serum was prewarmed for 10 min at 37 °C before the addition of the test compounds. Peptides were prepared at a 10-fold concentration in PBS and diluted to a final concentration between 60 and 30 μM with the serum. The serum-peptide reaction mix was incubated at 37 °C, and 40 μL aliquots were taken at the indicated time points. To stop the reaction, samples were mixed with 40 μL of 6 M urea for 10 min on ice, followed by precipitation of serum proteins by the addition of 40 μL of 20% TFA and incubation for at least 10 min on ice. The precipitate was pelleted at 15,000 × g for 15 min, and 90 μL of the supernatant was freeze-dried. The dry material was resuspended in HPLC solvent A (0.1% TFA in ddH2O). Peptide quantification was performed using analytical HPLC. The remaining peptide relative to the starting point (time point 0) was calculated by peak integration to determine the area under the peak at the designated time points and further calculated in comparison to time point 0 min, which was set as 100%. To calculate the half-life of the peptides in human serum, data points were fitted with a one-phase decay equation.

[1] = tested on: CD8+ lymphocytes (CD3+, CD8+); assay type: cell-based, human; conditions: normalized to untreated control, mean ± SEM of 4-6 experiments
Procedure: (§1) Transwell migration assays were performed similarly as published previously. HMEC-1 cells were seeded at a density of 75,000 cells per well in transwell inserts. Three days after cell seeding, the medium was changed, and the cells were stimulated with 100 ng/mL TNF-α and 20 ng/mL IFN-γ for 16–18 h. On the day of the assay, cells were washed with migration medium (serum-free RPMI medium supplemented with 0.1% BSA) to remove residual cytokines and starved for at least 1 h at 37 °C in migration medium. PBMC were starved for at least 1.5 h in migration medium before addition to the EC. For S1P and lifitegrast-treated samples, the PBMC were preincubated for at least 1.5 h at 37 °C with the ligands before addition to the EC. Pepitem and other peptides were added onto the EC monolayer and preincubated for 15–30 min at 37 °C before the addition of the PBMC. 200,000 PBMC per well were added directly on top of the EC prestimulated with pepitem or other peptides to reach a final volume of 150 μL in the donor compartments. The receiver compartments of the wells were filled with 600 μL RPMI with 20% FBS. After 4 h of migration at 37 °C, the receiver compartment with the migrated cells was collected. The migrated cells were stained with the indicated antibodies: CD3-APC (clone: OKT3, lot: B400127), CD4-PE (clone: OKT4. lot: B379180), CD8-FITC (clone: HIT8a, lot: B370193) from Biolegend and CD3-VioGreen (clone: REA613, lot: 5240502518), CD45RO-FITC (clone: REA611, lot: 5240502519), CD4-PerCP-Vio700 (clone: REA623, lot: 5240506702), CXCR3 PE-Vio615 (clone: REA232, lot: 5240506722), CD196-APC (clone: REA190, lot: 5240506717), CD8-APC-Vio770 (clone: REA734, lot: 5240303993) and CD45RO-PEVio616 (clone: REA611, lot: 5231102514) from Miltenyi Biotec (Bergisch Gladbach, Germany) and counted using precision counting beads (Biolegend) on a CytoflexS flow cytometer (BeckmanCoulter). Data was analyzed using CytExpert (Version 2.4). T cells were gated as CD3^+ cells, T cell subsets were gated as CD4^+ (CD3^+, CD4^+), CD8^+ (CD3^+, CD8^+), memory CD4^+ (CD3^+, CD4^+, CD45RO^+), memory CD8^+ (CD3^+, CD8^+, CD45RO^+) and Th1 cells (CD3^+, CD4^+, CXCR3^+, CCR6^–).
(§2) Data were analyzed using GraphPad Prism software. EC50 values were calculated by three-parameter nonlinear regression analysis. For this, the data points were normalized to the number of migrated cells in untreated (buffer) control samples (100%), and the regression was fitted with the top constraint to 100 and the slope fixed to 1. Statistical significance is indicated in graphs as n.s. not significant, * p < 0.05; ** p < 0.01; *** p < 0.001. The statistical tests used are indicated in the respective figure captions.

[2] = tested on: CD4+ lymphocytes (CD3+, CD4+); assay type: cell-based, human; conditions: normalized to untreated control, mean ± SEM of 4-6 experiments
Procedure: as §1, §2

[3] = tested on: memory CD8+ cells (CD3+, CD8+, CD45RO+); assay type: cell-based, human; conditions: normalized to untreated control, mean ± SEM of 4-6 experiments
Procedure: as §1, §2

[4] = tested on: memory CD4+ cells (CD3+, CD4+, CD45RO+); assay type: cell-based, human; conditions: normalized to untreated control, mean ± SEM of 4-6 experiments
Procedure: as §1, §2

CD3+ lymphocytes = assay: cells; assay type: cell-based, human; conditions: for % Inhibition of cell migration compared to control, CD3+: normalized to untreated control, mean ± SEM of 4-6 experiments
Procedure: 1 Transwell-based migration assay to study lymphocyte transendothelial migration. (A) The general principle of the transwell migration assay is depicted. Endothelial cells (EC) are seeded in transwell inserts and are incubated for 2 days to form an EC monolayer. On the day before the assay, the ECs are cytokine-stimulated to induce the expression of adhesion molecules. In the migration assay, human peripheral blood mononuclear cells (PBMC) are placed into the donor compartment of the transwell setup. After 4 h of incubation time, the migrated cells are harvested from the receiver compartment, stained with fluorescent antibodies and counted using flow cytometry. (B) PBMCs were preincubated with S1P for 1.5 h and then transferred into the donor compartment on top of the EC monolayer. […] Data are shown as mean ± SD of 3 to 5 independent experiments.
as §1, §2

SMILES	half-life (Serum stability assay)	% Inhibition of cell migration compared to control, CD8+ ([1]; 0.1 μM)	% Inhibition of cell migration compared to control, CD8+ ([1]; 1 μM)	% Inhibition of cell migration compared to control, CD4+ ([2]; 0.1 μM)	% Inhibition of cell migration compared to control, CD4+ ([2]; 1 μM)	% Inhibition of cell migration compared to control, Memory CD8+ ([3]; 0.1 μM)	% Inhibition of cell migration compared to control, Memory CD8+ ([3]; 1 μM)	% Inhibition of cell migration compared to control, Memory CD4+ ([4]; 0.1 μM)	% Inhibition of cell migration compared to control, Memory CD4+ ([4]; 1 μM)	% Inhibition of cell migration compared to control, CD3+ (CD3+ lymphocytes; 0.1 μM)	% Inhibition of cell migration compared to control, CD3+ (CD3+ lymphocytes; 1 μM)	effects on T-lymphocyte migration (in words) (CD3+ lymphocytes; two concentrations (0.1 and 1 μM), equal to untreated control)
CCCC[C@@H]1NC(=O)[C@H](C(C)C)NC(=O)[C@H](CCCCN)NC(=O)[C@@H](NC(=O)[C@H](CCC(N)=O)NC(=O)[C@H](CCC(=O)O)NC(C)=O)CSSC[C@@H](C(=O)N[C@@H](CCC(=O)O)C(=O)N[C@@H](CCCCN)C(N)=O)NC(=O)[C@H](CC(N)=O)NC(=O)[C@H](CC(=O)O)NC(=O)[C@H](CC(C)C)NC(=O)[C@@H]2CSSC[C@H](NC1=O)C(=O)N[C@@H](Cc1ccc(O)cc1)C(=O)N[C@@H](CCC(N)=O)C(=O)NCC(=O)N[C@@H](C)C(=O)N[C@@H](CCC(=O)O)C(=O)N[C@@H](CC(C)C)C(=O)N[C@@H](CO)C(=O)N1CCC[C@H]1C(=O)N[C@@H](CCC(=O)O)C(=O)N[C@@H](CC(C)C)C(=O)N[C@@H](CC(C)C)C(=O)N[C@@H](CCCNC(=N)N)C(=O)N[C@@H](CCCNC(=N)N)C(=O)N2 [VhTI-pep 4] (Ac-EQCKV[Nle]CYQGAELSPELLRRCLDNCEK-NH2; disulfide 3-25, 7-21)	> 48 h	19.5 ± 20.2%	26.0 ± 10.7%	16.5 ± 7.3%	24.5 ± 5.9%	27.9 ± 3.8%	19.7 ± 7.9%	12.9 ± 11.0%	27.2 ± 7.8%	16.7 ± 11.0%	24.4 ± 8.0%	–
CCCC[C@@H]1NC(=O)[C@H](C(C)C)NC(=O)[C@H](CCCCN)NC(=O)[C@@H](NC(=O)[C@H](CCC(N)=O)NC(=O)[C@H](CCC(=O)O)NC(C)=O)CSSC[C@@H](C(=O)N[C@@H](CCC(=O)O)C(=O)N[C@@H](CCCCN)C(N)=O)NC(=O)[C@H](CC(N)=O)NC(=O)[C@H](CC(=O)O)NC(=O)[C@H](CC(C)C)NC(=O)[C@@H]2CSSC[C@H](NC1=O)C(=O)N[C@@H](Cc1ccc(O)cc1)C(=O)N[C@@H](C)C(=O)N[C@@H](CCC(N)=O)C(=O)N[C@@H](CCCNC(=N)N)C(=O)N[C@@H](Cc1c[nH]cn1)C(=O)N[C@@H](CO)C(=O)N[C@@H](CO)C(=O)N1CCC[C@H]1C(=O)N[C@@H](CCC(=O)O)C(=O)N[C@@H](CC(C)C)C(=O)N[C@@H](CC(C)C)C(=O)N[C@@H](CCCNC(=N)N)C(=O)N[C@@H](CCCNC(=N)N)C(=O)N2 [VhTI variant, reference compound] (Ac-EQCKV[Nle]CYAQRHSSPELLRRCLDNCEK-NH2; disulfide 3-25, 7-21)	15.4 ± 12.9 h	1.6 ± 8.5%	–2.8 ± 15.8%	–7.8 ± 9.4%	–6.7 ± 7.0%	4.7 ± 7.4%	–11.6 ± 7.2%	–3.5 ± 2.4%	–11.6 ± 13.2%	–3.9 ± 7.0%	–5.2 ± 10.7%	no effects
CCCC[C@@H]1NC(=O)[C@H](C(C)C)NC(=O)[C@H](CCCCN)NC(=O)[C@@H](NC(=O)[C@H](CCC(N)=O)NC(=O)[C@H](CCC(=O)O)NC(C)=O)CSSC[C@@H](C(=O)N[C@@H](CCC(=O)O)C(=O)N[C@@H](CCCCN)C(N)=O)NC(=O)[C@H](CC(N)=O)NC(=O)[C@H](CC(=O)O)NC(=O)[C@H](CC(C)C)NC(=O)[C@@H]2CSSC[C@H](NC1=O)C(=O)N[C@@H](Cc1ccc(O)cc1)C(=O)N[C@@H](CCC(=O)O)C(=O)N[C@@H](CCC(N)=O)C(=O)NCC(=O)N[C@@H](C)C(=O)N[C@@H](CC(C)C)C(=O)N[C@@H](CO)C(=O)N1CCC[C@H]1C(=O)N[C@@H](CCC(=O)O)C(=O)N[C@@H](CC(C)C)C(=O)N[C@@H](CC(C)C)C(=O)N[C@@H](CCCNC(=N)N)C(=O)N[C@@H](CCCNC(=N)N)C(=O)N2 [VhTI-pep 5] (Ac-EQCKV[Nle]CYEQGALSPELLRRCLDNCEK-NH2; disulfide 3-25, 7-21)	> 48 h	20.8 ± 6.8%	24.8 ± 12.8%	16.2 ± 7.7%	33.5 ± 5.7%	4.7 ± 10.1%	14.0 ± 13.4%	11.5 ± 13.6%	28.6 ± 8.8%	18.0 ± 6.2%	28.4 ± 7.4%	–
